Here are results for three compounds from patent publication US20240262934A1, “STARCH-INDOLE-ACID DERIVATIVE, PREPARATION METHOD THEREFOR, AND USE THEREOF” (SHANDONG SHANWEI IMMUNOTECH CO., LTD., priority 2021, published 2024).

A short description of data set [1]: Concentration of IPA in feces of mice fed HAMSIPA feed. The class given is in vivo. The conditions noted are these: 15% and 1.5% in feed, one week. The method, then:
Indole acid derivatized starches with different degrees of substitution were added to a mouse feed in a ratio of 15% and 1.5%, respectively, and feces were taken to test the IPA content after mice were fed with a special feed prepared for one week.

A short description of data set [2]: Concentration of IAA/IPA in colonic contents for different modes of administration. The settings on record: for concentration of IAA in feces (colonic contents, FIG. 8), improvement compared with the control group: 0.068 mmol IAANa.
Procedure: (§1) A high performance liquid chromatography-tandem mass spectrometry (HPLC-MS/MS) technique was used to detect the content of metabolites IAA/IPA in each sample separately. Determination of the content of IAA/IPA in mouse feces: methanol was added into the collected feces, then vortexing, ultrasound extraction, and centrifuging were performed, a supernatant was taken to obtain an extract, the obtained extract was treated, IAA/IPA internal standards (IAA-d5/IPA-d2) were added for calibration, then purification was performed by using a small HLB solid-phase extraction column (pretreated with 5 mL of methanol and 5 mL water, then rinsed with 5 mL of a methanol/water mixed solution and 5 mL of water, an effluent being discarded, and finally eluted with 5 mL of methanol before use), and an eluate was analyzed by HPLC-MS/MS to detect IAA/IPA. Determination of the content of IAA/IPA in the hepatic portal blood and the peripheral blood: whole blood collected was allowed to stand and centrifuged at low temperature, and a supernatant was taken to obtain serum, and then an internal standard was added into the serum, purification was performed by using a solid-phase extraction column, and metabolites IAA/IPA in an eluate were detected by HPLC-MS/MS by the same method as described above. Determination of the content of IAA/IPA in the colon tissues: methanol was added into colon tissues collected, ultrasonically disrupted and further uniformly ground, then vortexing, ultrasound extraction, and centrifuging were performed, a supernatant was taken to obtain an extract, and then an internal standard was added into serum, purification was performed by using a solid-phase extraction column, and the concentration of IAA/IPA in the extract was detected by HPLC-MS/MS by the same method as described above.
(§2) The experiments were divided into 5 groups in total: • 1. Blank control group; • 2. […] IAANa-containing water drinking group (with the IAANa concentration of 2.68 mg/mL, average daily drinking of 5 mL of water per mouse, and a total intake of 0.068 mmol IAANa); • 4. Gavage group (with the IAANa concentration of 67 mg/mL, daily gavage of 0.2 mL, and a total intake of 0.068 mmol IAANa); and • 5. Intraperitoneal injection group (with the IAANa concentration of 67 mg/mL, daily injection of 0.2 mL, and a total intake of 0.068 mmol IAANa).
Data set [3] is described as follows: Concentration of IAA in hepatic portal blood serum for different modes of administration. The class given is in vivo, mice. An excerpt:
Blank control group; • 2.

The subject of data set [4] is ANA, Anti-dsDNA lgG2a, and Anti-Smith immune antibodies. The data set can be described thus: Serum immune antibodies in SLE mice by ELISA. The class given is in vivo. The settings on record: MRL/lpr mice; 1.5% HAMSIAA-0.32; after one month of treatment and after the experiment. From the text: After one month of treatment with HAMSIAA, blood serum samples from each group for mice were collected once. After the experiment, blood serum samples from each group of mice were collected again. The expression levels of ANA, Anti-dsDNA lgG2a, and Anti-Smith immune antibodies in the blood serum were detected by ELISA technique.
Background: ELISA stands for enzyme-linked immunosorbent assay.

Data set [5] has as its system cytokines IL-10, IL-6, IL-1, IL-22 in mouse colon tissue. As to the kind of experiment: Cytokine levels in colon tissue of DSS colitis mice. The conditions noted are these: 1.5% HAMSIAA-0.32 in feed, vs model group. The class given is in vivo. The method, then: After the end of the experiment, a disease active index (DAI) of mice was evaluated, mouse colons were taken to measure their lengths, and a colon status of the mice was evaluated by sectioning, and the levels of cytokines IL-10, IL-6, IL-22, etc. in colon tissues of the mice were detected.

In data set [6] the test system is dextran sulfate sodium (DSS)-induced acute ulcerative colitis. As to the kind of experiment: DSS-induced acute ulcerative colitis in mice: body weight, colon length, DAI, colon status, tissue sections. The class given is in vivo. The conditions noted are these: tested as 15% HAMSIAA-0.49 in feed. The method, then: After the end of the experiment, a disease active index (DAI) of mice was evaluated, mouse colons were taken to measure their lengths, and a colon status of the mice was evaluated by sectioning, and the levels of cytokines IL-10, IL-6, IL-22, etc. in colon tissues of the mice were detected. The effect of […] on the prevention and treatment of DSS-induced acute ulcerative colitis in mice was finally evaluated by these indicators.

Data set [7] has as its system Systemic lupus erythematosus model (MRL/lpr). The data set can be described thus: Systemic lupus erythematosus model mice: kidney pathology, skin damage, spleen and lymph nodes. The conditions noted are these: 1.5% HAMSIAA-0.32 in feed, 14 weeks. The class given is in vivo. The method, then:
• 1. Mouse food was prepared from the prepared […] in a certain addition ratio, and SLE model mice and control mice were purchased from Changzhou Cavens Experimental Animal Co., Ltd, aged 4-6 weeks. All mice were randomly divided into 4 groups: • Control group (MRL/MPJ); • Systemic lupus erythematosus model group (MRL/lpr); • Prednisone group (MRL/lpr+Prednisone); and • […] group ([…]). The […] group was given a special feed in which […] was added in a certain proportion for 14 weeks. Kidney tissues were collected after the end of the experiment. • 2. […] After the experiment, the spleens, cervical lymph nodes, and perirenal lymph nodes of each group for mice in this embodiment were collected.

The conditions of data set [8]: mouse, in vivo.
Procedure: as §1, §2
Data set [9] has as its system B cells and CD4+CXCR5+ Tfh in the spleen of MRL/lpr mice. The data set can be described thus: B cells, Tfh cells and BAFF in spleens of SLE mice. The conditions noted are these: 1.5% HAMSIAA-0.32, after the experiment. The class given is in vivo. The method, then:
After the experiment, the expression levels of CD3^− B220^+ B cells, B220^+IgM^+ B cells, B220^+CD138^+ B cells, and B220^+IgD^+ B cells in the spleen for mice in each group in this embodiment were tested. […] Wherein,
After the experiment, the expression levels of CD4^+CXCR5^+ Tfh in the spleens for mice in each group and BAFF in mice in each group in this Example were tested.

Data set [10] concerns TNF-α, IFN-γ, IL-4, IFN-α, IL-6 and IL-22. The data set can be described thus: Serum cytokine content in SLE mice. The class given is in vivo. The settings on record: MRL/lpr mice; 1.5% HAMSIAA-0.32; after the experiment.
Setting [11] is: IAANa-containing drinking water.

Where two headings read alike, the source gives them in different places.

Turning to “Indolepropionic Acid Derivatized High-Amylose Maize Starch [HAMSIPA]”, the “concentration of IPA in the feces compared with the HAMS group” value in [1] was “significantly increased”.

In the case of `O=C([O-])Cc1c[nH]c2ccccc12.[Na+]` [IAANa], the “concentration of IPA in the colonic contents compared with the control group” value in data set [2] (setting [11]), in data set [2] (gavage) and in [2] (intraperitoneal injection) was “not significantly changed” in each case. The “concentration of IAA in feces (colonic contents, FIG. 8), improvement compared with the control group” value in data set [2] (IAANa-containing drinking water, 2.68 mg/mL) is “about 30 times”; in [2] (gavage, 67 mg/mL, 0.2 mL daily), “about 7 times”; in data set [2] (intraperitoneal injection, 67 mg/mL, 0.2 mL daily) it was “about 7 times”. Besides, the “concentration of IAA in the hepatic portal blood compared with the control group” value in data set [3] (setting [11]), in data set [3] (gavage) and in [3] (intraperitoneal injection) was “significant increase” throughout.

In the case of “indoleacetic acid derivatized high-amylose maize starch [HAMSIAA]”, in data set [4], the “expression level of ANA in blood serum” value was “significantly reduce”, the “expression level of Anti-Smith in blood serum” value is given as “significantly reduce” and the “expression level of Anti-dsDNA lgG2a in blood serum” value is “significantly reduce”. In addition, the “level of anti-inflammatory cytokine IL-10 in the colon tissue” value in [5] (FIG. 17) is listed as “significantly increased”. Besides, the “level of pro-inflammatory cytokine IL-6 in the colon tissue” value in data set [5] (FIG. 18) is on record as “significantly reduced”. Also, in data set [5] (FIG. 19), the “level of pro-inflammatory cytokine in the colon tissue” value was “significantly reduced”. In addition, the “content of IL-22 in the colon tissue” value in data set [5] (FIG. 21) is listed as “significantly increased”. In [6], the “severity of DSS-induced ulcerative colitis” value is “effectively alleviate”. In [7], the “HE staining of kidney tissues (glomerular volume, cellular proliferation, inflammatory cell infiltration)” value is listed as “alleviated”; the “Renal interstitial scores (renal interstitial nephritis)” value is recorded as “significantly attenuates”; the “cervical lymph node weight (lymph nodes enlargement)” value is “significantly reduce”; the “glomerular scores (glomerular injury)” value was “significantly attenuates”. In addition, in data set [7], the “glomerulonephritis and interstitial nephritis / symptoms in SLE mice compared with the SLE mouse model group” value is listed as “effectively alleviate”; the “perirenal lymph node weight (lymph nodes enlargement)” value is “significantly reduce”; the “scores of the degree of skin damage” value was “significantly reduces”. The “concentration of IPA in the colonic contents compared with the control group” value in data set [8] is given as “significantly increased”. Moreover, in [9], the “expression level (concentration) of BAFF” value is reported as “inhibit”; the “expression level of CD4+CXCR5+ Tfh in the spleen” value is recorded as “inhibit”; the “proliferation and differentiation of B cells in the spleen (CD3− B220+ B cells)” value is recorded as “inhibit”; the “proportion of B220+CD138+ B cells (plasma cells) in the spleen” value was “reduce”. Moreover, in data set [9], the “proportion of B220+IgD+ B cells in the spleen” value is recorded as “increase” and the “proportion of B220+IgM+ B cells in the spleen” value is recorded as “increase”. Further, in data set [10], the “IFN-α expression level in blood serum” value is reported as “significantly reduce”, the “IFN-γ expression level in blood serum” value is recorded as “significantly reduce”, the “IL-4 expression level in blood serum” value is recorded as “significantly reduce” and the “IL-6 expression level in blood serum” value is recorded as “significantly reduce”. For the same compound, in [10], the “TNF-α expression level in blood serum” value was “significantly reduce” and the “expression level of the anti-inflammatory cytokine IL-22 in blood serum” value is listed as “promotes”.
